What all share (test): DTP human tumour cell line panel, 48 h
Assay [1] relates to CAKI-1.
Assay [2] deals with COLO 205.
Assay [3] deals with MOLT-4.
Assay [4] has as its system UACC-62.
Assay [5] concerns SK-OV-3.
The subject of assay [6] is A549.
The test system of assay [7] is IGROV-1.
In assay [8] the test system is SF-268.
Assay [9] relates to HT-29.
In assay [10] the test system is HOP-92.
Assay [11] concerns SK-MEL-2.
The subject of assay [12] is OVCAR-3.
Assay [13] has as its system SF-295.
Assay [14] concerns HCT-116.
In assay [15] the test system is OVCAR-5.
The test system of assay [16] is SN12C.
For assay [17], the system named is HOP-62.
Assay [18] concerns EKVX.
Assay [19] has as its system U-251.
In assay [20] the test system is KM12.

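48-hour exposure; five concentrations; linearly interpolated endpoints. At the GI50, growth is halved.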 Active and inactive are the calls of the source. No stated cut-off is given here; in the data, active = GI50 up to about 1.1 µM and inactive = higher.

The GI50 is the concentration at which growth is held to half of that of the control.

`CC1(C)CCC(C)(C)c2c1ccc(O)c2Cc1c(O)ccc2c1C(C)(C)CCC2(C)C`: the GI50 was 2.15 µM (inactive) in assay [1]; 2.13 µM (inactive) in assay [2]; 2.11 µM (inactive) in [3]; 2.02 µM (inactive) in assay [4]; 2.3 µM (inactive) in assay [5]; 2.27 µM (inactive) in [6]. For the same compound, the GI50 in assay [7] is 1.97 µM (inactive); in [8], 2.47 µM (inactive); in assay [9] it was 2.19 µM (inactive); in assay [10], 1.95 µM (inactive); in assay [11], 1.65 µM (inactive); in assay [12] it was 2.21 µM (inactive). Also, the GI50 was 2.45 µM (inactive) in assay [13]; 2 µM (inactive) in assay [14]; 2.25 µM (inactive) in [15]; 1.82 µM (inactive) in assay [16]; 2.19 µM (inactive) in assay [17]; 2.93 µM (inactive) in [18]. Moreover, the values for the GI50 in [19] and in assay [20] were 1.78 µM (inactive) and 1.95 µM (inactive), respectively.

With `C=CS(=O)(=O)c1c2cc(OC)ccc2nc2ccc(OC)cc12`, the GI50 in [1] was 4.22 µM (inactive); in assay [2] it was 4.34 µM (inactive); in assay [3] it was 2.32 µM (inactive); in assay [4], 12.2 µM (inactive); in assay [5], 17.7 µM (inactive); in assay [6], 17.1 µM (inactive). Moreover, the GI50 in [7] is 2.92 µM (inactive); in assay [8], 8.57 µM (inactive); in assay [9], 2.54 µM (inactive); in assay [10], 5.33 µM (inactive); in assay [11], 19 µM (inactive); in assay [12], 2.82 µM (inactive). Besides, the GI50 in assay [13] was 15 µM (inactive); in [14], 2.11 µM (inactive); in assay [15], 6.14 µM (inactive); in [16], 2.88 µM (inactive); in [17], 14.8 µM (inactive); in assay [18], 8.32 µM (inactive). The GI50 in assay [19] was 7.05 µM (inactive); in assay [20], 9.89 µM (inactive).

`Fc1ccc(C(OCCN2CCC3CCC(C2)N3Cc2cc3ccccc3[nH]2)c2ccc(F)cc2)cc1` (stereo not given): the GI50 is 2.23 µM (inactive) in [1]; 0.962 µM (active) in [2]; 1.35 µM (inactive) in assay [3]; 2.08 µM (inactive) in assay [4]; 2.33 µM (inactive) in [5]; 2.01 µM (inactive) in assay [6]. In addition, the GI50 in [7] is 1.38 µM (inactive); in assay [8], 2.04 µM (inactive); in assay [9], 1.08 µM (active); in assay [10] it was 1.84 µM (inactive); in [11], 1.71 µM (inactive); in [12], 1.77 µM (inactive). Besides, the GI50 is 1.96 µM (inactive) in [13]; 1.33 µM (inactive) in [14]; 1.74 µM (inactive) in assay [15]; 1.68 µM (inactive) in assay [16]; 2.05 µM (inactive) in assay [17]; 1.7 µM (inactive) in assay [18]. Also, the GI50 was 1.87 µM (inactive) in [19] and 1.71 µM (inactive) in [20].

Take `O=C1NCN(c2ccccc2)C12CCN(CCCN1CCN(CCOC(c3ccc(F)cc3)c3ccc(F)cc3)CC1)CC2`: the GI50 is 2.12 µM (inactive) in assay [1]; 1.52 µM (inactive) in [2]; 3.15 µM (inactive) in [3]; 2.05 µM (inactive) in assay [4]; 2.22 µM (inactive) in [5]; 2.03 µM (inactive) in assay [6]. For the same compound, the GI50 in assay [7] is 1.98 µM (inactive); in assay [8], 1.87 µM (inactive); in [9], 1.26 µM (inactive); in [10], 1.64 µM (inactive); in [11], 1.96 µM (inactive); in assay [12] it was 2.03 µM (inactive). For the same compound, the GI50 in [13] is 1.83 µM (inactive); in [14], 1.7 µM (inactive); in assay [15] it was 3.15 µM (inactive); in assay [16], 1.96 µM (inactive); in [17] it was 1.95 µM (inactive); in assay [18], 2.88 µM (inactive). Further, the GI50 in assay [19] is 1.92 µM (inactive); in [20] it was 2.43 µM (inactive).

Values taken from ChEMBL document CHEMBL1201862, “PubChem BioAssay data set” (2004).
